Measured values from PubChem BioAssay (NCI).
Values joined by “and” are separate entries in the source; they are usually repeats but may differ in a detail not shown here. Equal entries are not always repeated.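 Compound exposure: 48 hours, 5 concentrations, 96-well plates. GI50 marks 50% less growth. The concentration for full growth arrest is given as TGI.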

Assays:
Assay in all cases: NCI anticancer screen, dose series, 48 h
OVCAR-5 ovarian = test system: OVCAR-5 ovarian
RXF 393 renal = test system: RXF 393 renal
UACC-257 melanoma = test system: UACC-257 melanoma
UACC-62 melanoma = test system: UACC-62 melanoma
NCI/ADR-RES ovarian = test system: NCI/ADR-RES ovarian
NCI-H226 lung = test system: NCI-H226 lung
DMS 273 small cell lung = test system: DMS 273 small cell lung
HT29 colon = test system: HT29 colon
PC-3 prostate = test system: PC-3 prostate
SNB-78 CNS = test system: SNB-78 CNS

COc1ccc(/C=C2\CCC(CN(C)C)C2=O)cc1OC (configuration not stated)
TGI (OVCAR-5 ovarian): 29.8 µM
TGI (RXF 393 renal): 5.16 µM
TGI (UACC-257 melanoma): 17 µM
TGI (UACC-62 melanoma): 12.7 µM
TGI (NCI/ADR-RES ovarian): 7.19 µM
TGI (NCI-H226 lung): 28.2 µM
TGI (DMS 273 small cell lung): 29.8 µM
TGI (HT29 colon): 23.5 µM
TGI (PC-3 prostate): 13.9 µM
TGI (SNB-78 CNS): 66.4 µM

N.N.NCCCCCCN.O=C([O-])CC(=O)[O-].O=C([O-])CC(=O)[O-].[Pt+4].[Pt+4]
GI50 (OVCAR-5 ovarian): > 100 µM
TGI (OVCAR-5 ovarian): > 100 µM
GI50 (RXF 393 renal): > 41.4 µM
TGI (RXF 393 renal): > 100 µM
GI50 (UACC-257 melanoma): > 100 µM
TGI (UACC-257 melanoma): > 100 µM
GI50 (UACC-62 melanoma): 10.5 µM
TGI (UACC-62 melanoma): > 100 µM
GI50 (NCI-H226 lung): > 56.7 µM
TGI (NCI-H226 lung): > 100 µM
GI50 (DMS 273 small cell lung): 40.8 µM
TGI (DMS 273 small cell lung): > 100 µM
GI50 (HT29 colon): 62.5 µM
TGI (HT29 colon): > 100 µM
GI50 (SNB-78 CNS): > 100 µM
TGI (SNB-78 CNS): > 100 µM

O=C(CCc1cc(-c2ccccc2)nc(=S)[nH]1)Nc1ccccc1[N+](=O)[O-]
TGI (OVCAR-5 ovarian): > 100 µM
TGI (RXF 393 renal): > 100 µM
TGI (UACC-257 melanoma): > 100 µM
TGI (UACC-62 melanoma): > 100 µM
TGI (NCI-H226 lung): > 100 µM
TGI (DMS 273 small cell lung): > 100 µM
TGI (HT29 colon): > 100 µM
TGI (SNB-78 CNS): > 100 µM

COc1cc(C)c(O)c(C(=O)O)c1
TGI (OVCAR-5 ovarian): > 100 µM
TGI (RXF 393 renal): > 100 µM
TGI (UACC-257 melanoma): > 100 µM
TGI (UACC-62 melanoma): > 100 µM
TGI (NCI-H226 lung): > 100 µM
TGI (DMS 273 small cell lung): > 100 µM
TGI (HT29 colon): > 100 µM
TGI (SNB-78 CNS): > 100 µM

OCC1OC(n2cnc3c(=S)nc[nH]c32)C(O)C1O (configuration not stated)
GI50 (OVCAR-5 ovarian): 3.79 µM
TGI (OVCAR-5 ovarian): > 2500 µM
GI50 (RXF 393 renal): > 100 µM
TGI (RXF 393 renal): > 2500 µM
GI50 (UACC-257 melanoma): > 100 µM
TGI (UACC-257 melanoma): > 2500 µM
GI50 (UACC-62 melanoma): 3.56 µM
TGI (UACC-62 melanoma): 1910 µM and > 100 µM
GI50 (NCI/ADR-RES ovarian): 3.52 µM
TGI (NCI/ADR-RES ovarian): > 2500 µM
GI50 (NCI-H226 lung): > 31.1 µM
TGI (NCI-H226 lung): > 2500 µM
TGI (DMS 273 small cell lung): > 2310 µM
GI50 (HT29 colon): 4.72 µM
TGI (HT29 colon): > 2500 µM
GI50 (PC-3 prostate): 6.71 µM
TGI (PC-3 prostate): > 2500 µM
TGI (SNB-78 CNS): > 2500 µM

O=C1c2ccccc2CC1C1(O)C(=O)Nc2ccccc21 (configuration not stated)
TGI (OVCAR-5 ovarian): > 100 µM
TGI (RXF 393 renal): > 100 µM
TGI (UACC-257 melanoma): > 100 µM
TGI (UACC-62 melanoma): > 100 µM
TGI (NCI-H226 lung): > 100 µM
TGI (DMS 273 small cell lung): > 100 µM
TGI (HT29 colon): > 100 µM
TGI (SNB-78 CNS): > 100 µM

CC(=O)Nc1ccc(/C=C/C(=O)c2sc(-c3nc(C)c(C(=O)/C=C/c4ccc(NC(C)=O)cc4)s3)nc2C)cc1
TGI (OVCAR-5 ovarian): > 100 µM
TGI (RXF 393 renal): > 100 µM
TGI (UACC-257 melanoma): > 100 µM
TGI (UACC-62 melanoma): > 100 µM
TGI (NCI-H226 lung): > 100 µM
TGI (DMS 273 small cell lung): > 100 µM
TGI (HT29 colon): > 100 µM
TGI (SNB-78 CNS): > 100 µM

CS/C(=N\c1nccs1)NC(=O)c1cccc(Cl)c1
TGI (OVCAR-5 ovarian): > 100 µM
TGI (RXF 393 renal): > 100 µM
TGI (UACC-257 melanoma): > 100 µM
TGI (UACC-62 melanoma): > 100 µM
TGI (NCI-H226 lung): > 100 µM
TGI (DMS 273 small cell lung): > 100 µM
TGI (HT29 colon): > 100 µM
TGI (SNB-78 CNS): > 100 µM

COC(=O)C1=C(O)c2cc3c(cc2[C@H](c2cc(OC)c(OC)c(OC)c2)C1C(=O)OC)OCO3 (some centres not stated)
TGI (OVCAR-5 ovarian): > 100 µM
TGI (RXF 393 renal): 73.4 µM
TGI (UACC-257 melanoma): > 100 µM
TGI (UACC-62 melanoma): 99.4 µM
TGI (NCI-H226 lung): > 100 µM
TGI (DMS 273 small cell lung): > 100 µM
TGI (HT29 colon): > 100 µM
TGI (SNB-78 CNS): > 100 µM
